The record followed here is patent US12134620B2 (ARAXES PHARMA LLC, priority 2018, dated 2024).

The target of this test is T1, KRAS G12C 1-169, his-tagged protein, GDP-loaded (Homo sapiens, UniProt P01116, G12C).
T1 construct: KRAS G12C 1-169, his-tagged protein, GDP-loaded; His tag
Briefly: Biochemical assay: covalent modification of KRAS G12C, analysed by mass spectrometry (RapidFire/TOF or Q-Exactive). Also: time not given here. The class given is binding. Particulars: Modification activity, modification percentage from MS peak intensities. The method, boiled down:
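Covalent adduct formation was quantified by intact-protein mass spectrometry, either TOF or C4 LC-Q Exactive Plus, as percent modified versus unmodified protein after deconvolution. Compounds at 8 or 32 μM final were incubated with 0.5 or 2 μM GDP-bound KRAS G12C(1-169)-His in Hepes/NaCl/MgCl2 buffer before acid quench.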
As to `C=CC(=O)N1CC2(CCN(c3nc(N4CCOCC4)nc(-c4c(C)ccc5[nH]ncc45)c3C#N)C2)C1` [Compound I-3, 4-(2-acryloyl-2,6-diazaspiro[3.4]octan-6-yl)-6-(5-methyl-1H-indazol-4-yl)-2-morpholinopyrimidine-5-carbonitrile], the Binding % result was “+++ (+++ indicates binding activity greater than 85%)”.

In the case of `C=CC(=O)N1CC2(CCN(c3nc(N4CC5CCN(C)CC5C4)nc(-c4c(C)ccc5[nH]ncc45)c3C#N)C2)C1` (stereo not drawn) [Compound I-46, 4-(2-acryloyl-2,6-diazaspiro[3.4]octan-6-yl)-6-(5-methyl-1H-indazol-4-yl)-2-(5-methyloctahydro-2H-pyrrolo[3,4-c]pyridin-2-yl)pyrimidine-5-carbonitrile], the Binding % result was “+++ (+++ indicates binding activity greater than 85%)”.

`C=CC(=O)N1CC2(CCN(c3nc(OC[C@@H]4CCN(C)C4)nc(-c4c(C)ccc5[nH]ncc45)c3C#N)C2)C1` [Compound I-37, 4-(2-acryloyl-2,6-diazaspiro[3.4]octan-6-yl)-6-(5-methyl-1H-indazol-4-yl)-2-(((R)-1-methylpyrrolidin-3-yl)methoxy)pyrimidine-5-carbonitrile]: the Binding % result was “+ (+ indicates binding activity greater than 0% and up to 50%)”.

`C=CC(=O)N1CC2(CCN(c3nc(OC[C@@H]4CCCN4C)nc(-n4cnc5ccccc54)c3C#N)C2)C1` [Compound I-38, (S)-4-(2-acryloyl-2,6-diazaspiro[3.4]octan-6-yl)-6-(1H-benzo[d]imidazol-1-yl)-2-((1-mehtylpyrrolidin-2-yl)methoxy)pyrimidine-5-carbonitrile]: the Binding % result is “+ (+ indicates binding activity greater than 0% and up to 50%)”.

For the compound `C=CC(=O)N1CC2(CCN(c3ncnc(C#Cc4c(C)ccc5[nH]ncc45)c3C#N)C2)C1` [Compound I-232, 4-(2-acryloyl-2,6-diazaspiro[3.4]octan-6-yl)-6-((5-methyl-1H-indazol-4-yl)ethynyl)pyrimidine-5-carbonitrile], the Binding % entry was “+ (+ indicates binding activity greater than 0% and up to 50%)”.

On to `C=CC(=O)N1CC2(CCN(c3nc(N4CCC[C@H](CO)C4)nc(-c4c(C)ccc5[nH]ncc45)c3C#N)C2)C1` [Compound I-211, 4-(2-acryloyl-2,6-diazaspiro[3.4]octan-6-yl)-2-((S)-3-(hydroxymethyl)piperi-din-1-yl)-6-(5-methyl-1H-indazol-4-yl)pyrimidine-5-carbonitrile], for which the Binding % entry is reported as “++ (++ indicates binding activity from 50 to 85%)”.

Regarding `C=CC(=O)N1CC2(CCN(c3nc(OC[C@@H]4CCCN4C)nc(-c4c(C)ccc5[nH]nc(N)c45)c3C#N)C2)C1` [Compound I-108, 4-(2-acryloyl-2,6-diazaspiro[3.4]octan-6-yl)-6-(3-amino-5-methyl-1H-indazol-4-yl)-2-(((S)-1-methylpyrrolidin-2-yl)methoxy)pyrimidine-5-carbonitrile], the Binding % result is reported as “++ (++ indicates binding activity from 50 to 85%)”.

As to `C=CC(=O)N1CC2(CCN(c3nc(N4CCOCC4)nc(N4CC(O)Cc5ccccc54)c3C#N)C2)C1` (stereo not drawn) [Compound I-89, 4-(2-acryloyl-2,6-diazaspiro[3.4]octan-6-yl)-6-(3-hydroxy-3,4-dihydroquinolin-1(2H)-yl)-2-morpholinopyrimidine-5-carbonitrile], the Binding % entry is “+ (+ indicates binding activity greater than 0% and up to 50%)”.

As to `C=CC(=O)N1CC2(CC(=O)N(c3ncnc(-c4c(C)ccc5[nH]ncc45)c3C#N)C2)C1` [Compound I-273, 4-(2-acryloyl-7-oxo-2,6-diazaspiro[3.4]octan-6-yl)-6-(5-methyl-1H-indazol-4-yl)pyrimidine-5-carbonitrile], the Binding % result is “+ (+ indicates binding activity greater than 0% and up to 50%)”.

For `C=CC(=O)N1CC2(CCN(c3nc(N4CCOCC4)nc(N4CCCc5ccccc54)c3C#N)C2)C1` [Compound I-88, 4-(2-acryloyl-2,6-diazaspiro[3.4]octan-6-yl)-6-(3,4-dihydroquinolin-1(2H)-yl)-2-morpholinopyrimidine-5-carbonitrile], the Binding % result was “+ (+ indicates binding activity greater than 0% and up to 50%)”.

With `C=CC(=O)N1CC2(CCN(c3nc(OC[C@@H]4CCCN4C)nc(-c4cc(O)cc5ccccc45)c3C#N)C2)C1` [Compound I-92, (S)-4-(2-acryloyl-2,6-diazaspiro[3.4]octan-6-yl)-6-(3-hydroxynaphthalen-1-yl)-2-((1-methylpyrrolidin-2-yl)methoxy)pyrimidine-5-carbonitrile], the Binding % entry is recorded as “++ (++ indicates binding activity from 50 to 85%)”.

As for `C=CC(=O)N1CC2(CCN(c3nc(OC[C@@H]4COCCN4C)nc(-c4c(C)ccc5[nH]ncc45)c3C#N)C2)C1` [Compound I-117, 4-(2-acryloyl-2,6-diazaspiro[3.4]octan-6-yl)-6-(5-methyl-1H-indazol-4-yl)-2-(((S)-4-methylmorpholin-3-yl)methoxy)pyrimidine-5-carbonitrile], the Binding % entry is given as “++ (++ indicates binding activity from 50 to 85%)”.

For `C=CC(=O)N1CC2(CCN(c3nc(OC[C@@H]4CCCN4C)nc(Nc4cccc(C(N)=O)c4)c3C#N)C2)C1` [Compound I-44, (S)-3-((6-(2-acryloyl-2,6-diazaspiro[3.4]octan-6-yl)-5-cyano-2-((1-methylpyrrolidin-2-yl)methoxy)pyrimidin-4-yl)amino)benzamide], the Binding % result is “+ (+ indicates binding activity greater than 0% and up to 50%)”.

For the compound `C=CC(=O)N1CC2(CCN(c3nc(N4CC5CN(C)CC5C4)nc(-c4c(C)ccc5[nH]ncc45)c3C#N)C2)C1` (stereo not drawn) [Compound I-39, 4-(2-acryloyl-2,6-diazaspiro[3.4]octan-6-yl)-6-(5-methyl-1H-indazol-4-yl)-2-(5-methylhexahydropyr-rolo[3,4-c]pyrrol-2(1H)-yl)pyrimidine-5-carbonitrile], the Binding % result was “+ (+ indicates binding activity greater than 0% and up to 50%)”.

On to `C=CC(=O)N1CC2(CCN(c3nc(OC[C@@H]4CN(C)CCO4)nc(-c4c(C)ccc5[nH]ncc45)c3C#N)C2)C1` [Compound I-91, 4-(2-acryloyl-2,6-diazaspiro[3.4]octan-6-yl)-6-(5-methyl-1H-indazol-4-yl)-2-(((S)-4-methylmorpholin-2-yl)methoxy)pyrimidine-5-carbonitrile], for which the Binding % result is on record as “++ (++ indicates binding activity from 50 to 85%)”.

With `C=CC(=O)N1CC2(CCN(c3nc(OCc4cnc(C)nc4)nc(-c4c(C)ccc5[nH]ncc45)c3C#N)C2)C1` [Compound I-171, 4-(2-acryloyl-2,6-diazaspiro[3.4]octan-6-yl)-6-(5-methyl-1H-indazol-4-yl)-2-((2-methylpyrimidin-5-yl)methoxy)pyrimidine-5-carbonitrile], the Binding % entry is on record as “+++ (+++ indicates binding activity greater than 85%)”.

For `C=CC(=O)N1CC2(CCN(c3nc(N4CCOCC4)nc(-c4c(F)ccc5cnn(C6CC6)c45)c3C#N)C2)C1` [Compound I-120, 4-(2-acryloyl-2,6-diazaspiro[3.4]octan-6-yl)-6-(1-cyclopropyl-6-fluoro-1H-indazol-7-yl)-2-morpholinopyrimidine-5-carbonitrile], the Binding % result was “+++ (+++ indicates binding activity greater than 85%)”.

Consider `C=CC(=O)N1CC2(CCN(c3nc(C4CCOCC4)nc(-c4c(C)ccc5[nH]ncc45)c3C#N)C2)C1` [Compound I-196, 4-(2-acryloyl-2,6-diazaspiro[3.4]octan-6-yl)-6-(5-methyl-1H-indazol-4-yl)-2-(tetrahydro-2H-pyran-4-yl)pyrimidine-5-carbonitrile], for which the Binding % result is reported as “++ (++ indicates binding activity from 50 to 85%)”.

With `C=CC(=O)N1CC2(CCN(c3ncnc(-c4c(C)ccc5[nH]ncc45)c3C(F)(F)F)C2)C1` [Compound I-260, 1-(6-(6-(5-methyl-1H-indazol-4-yl)-5-(trifluoromethyl)pyri-midin-4-yl)-2,6-diazaspiro[3.4]octan-2-yl)prop-2-en-1-one], the Binding % result was “+ (+ indicates binding activity greater than 0% and up to 50%)”.

Turning to `C=CC(=O)N1CC2(CCN(c3nc(N4CCOCC4)nc(-c4c(C)ccc5c4cnn5C)c3C#N)C2)C1` [Compound I-79, 4-(2-acryloyl-2,6-diazaspiro[3.4]octan-6-yl)-6-(1,5-dimethyl-1H-indazol-4-yl)-2-morpholinopyrimidine-5-carbonitrile], the Binding % result is “+ (+ indicates binding activity greater than 0% and up to 50%)”.

On to `C=CC(=O)N1CC2(CCN(c3nc(OC[C@@H]4CN(C)CCO4)nc(-c4c(C)ccc5[nH]ncc45)c3C#N)C2)C1` [Compound I-81, 4-(2-acryloyl-2,6-diazaspiro[3.4]octan-6-yl)-6-(5-methyl-1H-indazol-4-yl)-2-(((S)-4-methylmorpholin-2-yl)methoxy)pyrimidine-5-carbonitrile], for which the Binding % entry is on record as “+++ (+++ indicates binding activity greater than 85%)”.

In the case of `C=CC(=O)N1CC2(CCN(c3ncnc(Oc4ccccc4C(N)=O)c3C#N)C2)C1` [Compound I-244, 2-((6-(2-acryloyl-2,6-diazaspiro[3.4]octan-6-yl)-5-cyanopyrimidin-4-yl)oxy)benzamide], the Binding % result is “+ (+ indicates binding activity greater than 0% and up to 50%)”.

On to `C=CC(=O)N1CC2(CCN(c3nc(N4CCOC(c5ccccc5)C4)nc(-c4c(C)ccc5[nH]ncc45)c3C#N)C2)C1` (stereo not drawn) [Compound I-109, 4-(2-acryloyl-2,6-diazaspiro[3.4]octan-6-yl)-6-(5-methyl-1H-indazol-4-yl)-2-(2-phenylmorpholino)py-rimidine-5-carbonitrile], for which the Binding % entry is “++ (++ indicates binding activity from 50 to 85%)”.

For `C=CC(=O)N1CC2(CCN(c3cnc(Cc4ccccc4)c(-c4c(C)ccc5cnn(C)c45)c3C#N)C2)C1` [Compound I-224], the Binding % result is “++ (++ indicates binding activity from 50 to 85%)”.
